The values that follow come from PubChem BioAssay (NCI).

Common to all, as to assay: NCI-60 cell line screen, 48 h
For test [1], the system named is BT-549 breast.
Test [2] relates to MDA-MB-231 breast.
Test [3] relates to SK-MEL-2 melanoma.
Test [4] relates to SNB-75 CNS.
Test [5] concerns SR leukemia.
Test [6] concerns T-47D breast.
The subject of test [7] is MDA-MB-435.

“And” between values parts separate entries of the source, which are not always exact repeats. Equal entries are not always repeated.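 Exposure lasted 48 hours, with cells grown in 96-well plates and compounds tested at five concentrations. At the GI50, growth is halved. TGI: total growth inhibition.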 Bounds are passed on as bounds.

For `O=NNc1nc(-c2ccccn2)nc2ccccc12`, the TGI in test [1] is > 100 µM; in test [2], > 100 µM; in test [3] it was 39.5 µM; in test [4] it was > 100 µM; in test [5], > 100 µM; in test [6], > 100 µM.
Consider `CCc1c[nH]c2ncnc(N3CC[C@](N)(CNC(=O)c4ccc(F)cc4F)C3)c12`, for which the GI50 in test [1] was 0.797 µM; in test [2], 48.5 µM; in test [7] it was 12.8 µM; in test [3], 28 µM; in test [4] it was 0.0768 µM; in test [5], 2.19 µM. In addition, in test [6], the GI50 is 0.203 µM. Besides, the TGI in test [1] was 18.1 µM; in test [2], > 100 µM; in test [7], > 79.7 µM; in test [3] it was > 100 µM; in test [4], 7.97 µM; in test [5], > 66.3 µM. In test [6], this molecule displayed a TGI of 11.1 µM.
With `CCNc1nc(-c2ccc(Cl)c(OC)c2)c(-c2ccnc(NCCNS(=O)(=O)c3ccc(Cl)cc3)n2)s1`, the GI50 in test [1] is 3.09 µM; in test [2], 2.15 µM; in test [7], 3.02 µM; in test [3], 2 µM; in test [4], 2.35 µM; in test [5] it was 2.7 µM. Further, the GI50 in test [6] was 2.48 µM. The TGI in test [1] came out at 38 µM; in test [2] it was 5.03 µM; in test [7], 40.6 µM; in test [3], 4.41 µM; in test [4], 29.8 µM; in test [5], 7.51 µM. The molecule also registered a TGI in test [6] of 8.02 µM.
As to `C=CCCC1(CCP(=O)(c2ccccc2)c2ccccc2)OCCO1`, the TGI in test [1], in test [2], in test [7], in test [3], in test [4] and in test [5] was > 100 µM each time.
Turning to `COc1ccc(-c2ccc(/C=N/n3c(COc4ccc(Cl)c(C)c4)nn(CN4CCOCC4)c3=S)o2)c([N+](=O)[O-])c1`, the GI50 in test [1] was 34.6 µM; in test [7] it was 21 µM; in test [5], 26.3 µM; in test [6], 44.1 µM. Besides, the TGI in test [1] was 85 µM; in test [7] it was 49.5 µM; in test [5] it was 72.1 µM; in test [6], > 100 µM.
In the case of `CC1=C(C(=O)OC(C)(C)C)C(c2ccc([N+](=O)[O-])cc2)C(C(=O)OC(C)(C)C)=C(C)N1`, the TGI turned out to be 44.1 µM in test [1]; 41.4 µM in test [2]; 57.9 µM in test [7]; 46.6 µM in test [3]; 61.2 µM in test [4]; 33.4 µM in test [6].
Turning to `Cc1c(-c2ccc(N3CCc4cccc(C(=O)Nc5nc6ccccc6s5)c4C3)nc2C(=O)O)cnn1CC12CC3CC(CC(C3)C1)C2`, the GI50 is 3.73 µM in test [1]; 6.77 µM in test [7]; 3.1 µM in test [3]; 9.35 µM in test [4]; 12.8 µM in test [5]; 6.59 µM in test [6]. In addition, the TGI was 16.4 µM in test [1]; 28.3 µM in test [7]; 20.5 µM in test [3]; 36.8 µM in test [4]; > 57.4 µM in test [5]; 30.7 µM in test [6].
Take `O=C(/C=C/N1CCN(c2cccc(Cl)c2)CC1)c1ccc(Cl)cc1`: the GI50 in test [1] was 19.3 µM; in test [2] it was 30 µM; in test [7], 19.3 µM; in test [3], 35.3 µM; in test [5], 26.1 µM; in test [6], 51.2 µM. Also, the TGI in test [1] was 50.2 µM; in test [2] it was > 100 µM; in test [7] it was 50.2 µM; in test [3], > 100 µM; in test [5], 59.3 µM; in test [6], > 100 µM.
As to `COc1cc(COC(=O)NC(Cc2cccs2)C(=O)O)c([N+](=O)[O-])cc1OC` (configuration not stated), the TGI in test [1], in test [7], in test [4], in test [5] and in test [6] was > 100 µM in each case.
Turning to `N#Cc1c(N)nc(N2CCOCC2)c(C#N)c1-c1ccc(Cl)cc1Cl`, the GI50 in test [1] was 17.4 µM; in test [2] it was 15.9 µM; in test [7], 5.75 µM; in test [3], 13.6 µM; in test [4], 6.31 µM; in test [6], 12.9 µM. Further, the TGI amounted to 55.8 µM in test [1]; 43.7 µM in test [2]; 21.9 µM in test [7]; 32.4 µM in test [3]; 30.4 µM in test [4]; 81.4 µM in test [6].
Take `CN(C)C(=O)c1cc2cnc(Nc3ccc(N4CCNCC4)cn3)nc2n1C1CCCC1`: the GI50 in test [2] is 8.48 µM; in test [7] it was 12.7 µM; in test [3], 12.2 µM; in test [4] it was 10.2 µM; in test [5], 3.21 µM; in test [6], 12.9 µM. Further, the TGI came to 74.5 µM in test [2]; 36.6 µM in test [7]; 30.1 µM in test [3]; 22 µM in test [4]; 38.7 µM in test [5]; 91.8 µM in test [6].
Take `O=C(Nc1cccc(C(F)(F)F)c1)Nc1cc(S(=O)(=O)NC2CC2)ccc1-c1ccsc1`: the GI50 is 3.43 µM in test [2]; 3.61 µM in test [7]; 3.15 µM in test [3]; 3.45 µM in test [4]; 2.72 µM in test [5]; 3.16 µM in test [6]. The TGI in test [2] came to 14.8 µM; in test [7], 13.1 µM; in test [3], 13.7 µM; in test [4], 16.4 µM; in test [5] it was 8.92 µM; in test [6], 15 µM.
Regarding `Cc1cc(C2(c3cc(C)c(O)c4ncccc34)OC(=O)c3ccccc32)c2cccnc2c1O`, the figures for the GI50 in test [1], in test [2] and in test [3] were 5.26 µM, 0.0215 µM and 0.117 µM, respectively. Moreover, the TGI in test [1] is > 100 µM; in test [2] it was 22.7 µM; in test [7], > 100 µM; in test [3], > 100 µM; in test [4], 6.82 µM and 8.1 µM.
